Results reported in paper PMC4723341, “Ribonuclease H/DNA Polymerase HIV-1 Reverse Transcriptase Dual Inhibitor: Mechanistic Studies on the Allosteric Mode of Action of Isatin-Based Compound RMNC6” (PLoS ONE, 2016).

Tests used:
p66/p51 HIV-1 RT = biological target: T1, p66/p51 HIV-1 RT (Human immunodeficiency virus type 1 group M subtype B, UniProt P04585); experiment: Thermal stability by differential scanning fluorimetry; format: binding; conditions: increasing concentrations of inhibitor
T1 construct: The 1:1 ration between the p66/p51 subunits was also verified; made in house; host or cells: E. coli M15
Protocol: Thermal stability assays were performed according to Nettleship et al.. […] The mixture was heated from 30 to 90°C in increments of 0.2°C. Fluorescence intensity was measured using excitation and emission wavelengths of 483 and 568 nm, respectively. Changes in protein thermal stability (ΔTm) upon inhibitor binding were analyzed by using the LightCycler 480 software. All assays were performed in triplicate.

[1] = biological target: HIV-1 RT-associated RDDP activity, HIV-1 group O RT (Human immunodeficiency virus type 1 group O, UniProt Q79666); experiment: RDDP activity assay, HIV-1 group O RT; format: biochemical; conditions: read-out: IC50 RDDP
Description: Recombinant HIV-1 group O RT was expressed and purified as previously described. It was obtained as a heterodimer composed of subunits of 66 and 51 kDa, with a polyhistidine tag at the C-terminus of p66. For this purpose, the RT p66 subunit encoded within a p66RTB expression vector was co-expressed with the HIV-1 protease in E. coli XL-1 Blue, and the obtained heterodimers were then purified by ionic exchange followed by chromatography on Ni2+-nitriloacetic acid agarose. The enzyme was quantified by active site titration before biochemical studies.
RNA-dependent DNA polymerase (RDDP) activity was measured as described in 25 μL volume containing 60 mM Tris-HCl buffer pH 8.1, 8 mM MgCl2, 60 mM KCl, 13 mM DTT, 2.5 μM poly(A)-oligo(dT), 100 μM dTTP, increasing concentrations of inhibitors, whose dilution were made in water, and different amounts of enzymes according to a linear range of dose-response curve: 6 ng wt RT; 30 ng K103N RT; 12 ng V106ART; 19 ng V108A RT; 1.51.5 ng Y181C RT; 45 ng Y188A RT; 15 ng Y188L RT; 30 ng E224A RT; 15 ng P225A RT; 18 ng P226A RT; 23 ng F227A RT; 15 ng L228A RT; 30 ng W229A RT; 30 ng M230A RT; 15 ng G231A RT; 15 ng N474A RT; 15 ng Y501A RT; 15 ng A502F RT; 19 ng A508V RT; 38 ng HIV-1 group O RT. After enzyme addition, the reaction mixture was incubated for 30 min at 37°C and the stopped by addition of EDTA. […]

SMILES	Tm decrease of HIV-1 RT (p66/p51 HIV-1 RT)	IC50 [1]
Cc1sc2nc(-c3ccc(O)c(O)c3)[nH]c(=O)c2c1C [VU, 2-(3,4-dihydroxyphenyl)-5,6-dimethylthieno[2,3-d]pyrimidin-4(3H)-one]	0.5−5.5 °C	
O=C1Nc2ccc(Cl)cc2[C@@](C#CC2CC2)(C(F)(F)F)O1 [EFV, Efavirenz, reference compound]		212 ± 46 nM
